According to patent publication US20050129621A1, “Aerosol formulations for pulmonary administration of medicaments to produce a systemic effect” (Chiesi Farmaceutici S.P.A., priority 2002, published 2005):
Like-named read-outs stand apart in the source and are kept apart here.

How the values were obtained:
[1] = Solubility studies in HFA pMDI formulations (visual assessment for crystal growth)
Procedure: The assembly of the pMDI cans was carried out using hand operated crimping and filling equipment. Formulations were prepared by accurately weighing the required quantity of drug into the can or vial. The appropriate volume of ethanol and the other co-solvent if required in the formulation, was then added. The valve was crimped onto the vial/can and the assembled vial/can was ultra-sonicated for approximately 10 minutes. The HFA propellant was filled through the valve and the pMDI was ultra-sonicated for a further 10 minutes. […] Final compositions were calculated as percentage w/v for the active ingredient and as percentage w/w for the co-solvents.
All solubility investigations were conducted in plastic coated glass pMDI vials fitted with continuous spray valves. Once produced the medicament-HFA solution pMDIs were stored in refrigerator at 4° C. (±0.1° C.). The pMDI vials were removed periodically and the vials assessed visually with the aid of a polarized light unit for crystal growth.

[2] = Cascade impaction studies (Andersen Cascade Impactor), aerosol delivery characteristics; format: physicochemical
Procedure: All impaction studies were conducted with formulations contained in cut edge anodised aluminium cans fitted with 50 μl or 100 μl valves. The studies were carried out using an Andersen Cascade Impactor (ACI) fitted with a USP XXII metal throat entry port.
The HFA solution formulations were discharged into the ACI through actuators having an orifice diameter from 0.14 to 0.45 mm. Deposition of the drug on each ACI plate was determined by high pressure liquid chromatography (HPLC).
MMAD values and corresponding geometric standard deviation (GSD) were calculated from plots of the cumulative percentage undersize of drug collected on each ACI plate (probit scale), against the upper cut off diameter for each respective ACI plate (log10 scale).
The following parameters were determined: the metered dose, which is the sum of the dose delivered through the Andersen apparatus plus the active ingredient residue deposited on the device actuator; the cumulative amount of active particles deposited on the various ACI stages; the amount on the actuator; the amount in the adaptor and in the throat (adp/throat); the fme particle dose or respirable dose (FPD) which is the amount of particles deposited on stages 3 to filter of the ACI and corresponds to the amount of particles of size less than 4.7 μm; the fine particle fraction or respirable fraction which is the ratio between the respirable dose and the dose delivered ex-actuator.
The cans were provided with actuators with an orifice diameter of 0.22 mm.
Two ACI deposition determinations were performed with each formulation. Twenty shots were discharged into the ACI.
The cans were provided with actuators with an orifice diameter of 0.14 mm.
Two ACI deposition determinations were performed with the formulation. Ten shots were discharged into the ACI.

[3] = Stability study of pMDI formulations in coated aluminum cans, HPLC; details: 25° C., six months
Procedure: The recovery of diisobutyryl apomorphine was determined by HPLC.
The leuprolide acetate content was determined by HPLC.

[4] = 0.04% w/v (40 μg/100 μl) in HFA 134a, 15% w/w ethanol, 2% w/w water, actuator orifice 0.14 mm
[5] = 0.08% w/v (80 μg/100 μl) in HFA 134a, 18% w/w ethanol, 3% w/w water, actuator orifice 0.14 mm
[6] = 0.5% and 1% w/v in HFA 134a, 5% w/w ethanol, 0.1% w/w glycerol, actuator orifice 0.22 mm

Row | SMILES | change of solubility when water was added [1] | concentration at which formulations are soluble [1] | MMAD [2, 4] | amount of active particles of sizes from 0.43 to 3.3 μm [2, 4] | fine particle fraction (FPF) [2, 4] | MMAD [2, 5] | amount of active particles of sizes from 0.43 to 3.3 μm [2, 5] | fine particle fraction (FPF) [2, 5] | concentration at which formulations are soluble ([1]; in HFA 134a or HFA 227, various percentages of ethanol, stored at 4° C.) | MMAD [2, 6] | amount of active particles of sizes from 0.43 to 3.3 μm [2, 6] | fine particle fraction (FPF) [2, 6] | degradation ([3]; formulation of Example 1, coated aluminum cans upright and inverted) | difference between cans stored upright and inverted ([3]; formulation of Example 1, coated aluminum cans)
1 | CCNC(=O)[C@@H]1CCCN1C(=O)[C@H](CCCNC(=N)N)NC(=O)[C@H](CC(C)C)NC(=O)[C@@H](CC(C)C)NC(=O)[C@H](Cc1ccc(O)cc1)NC(=O)[C@H](CO)NC(=O)[C@H](Cc1c[nH]c2ccccc12)NC(=O)[C@H](Cc1c[nH]cn1)NC(=O)[C@@H]1CCC(=O)N1 [leuprolide acetate] | significant increase | up to 0.26 % w/v | about 1.0 μm | ≥ 61% | at least 72% | about 1.3 μm | ≥ 52% | at least 59% |  |  |  |  |  | 
2 | CC(C)C(=O)Oc1ccc2c(c1OC(=O)C(C)C)-c1cccc3c1[C@@H](C2)N(C)CC3 [diisobutyryl apomorphine] |  |  |  |  |  |  |  |  | up to 1 % w/v | about 2.0 μm | ≥ 60% | 70-75% | minimal degradation | no significant difference
